Measured values published in patent publication US10131652B2, “Pyrimidinyloxy benzene derivatives as herbicides” (E. I. DU PONT DE NEMOURS AND COMPANY, priority 2014, dated 2018).
Where two headings read alike, the source gives them in different places.

Columns and labels:
Assay in all cases: Test E pre-/postemergence plant response
Format in all cases: in vivo
[1] = system: pigweed (Amaranthus retroflexus); details: scale 0 to 100, read-out: Plant response rating, Pigweed; for pest or weed control at 16 g/ha: 16 g ai/ha; for pest or weed control at 31 g/ha: 31 g ai/ha; for pest or weed control at 62 g/ha: 62 g ai/ha; for pest or weed control at 125 g/ha: 125 g ai/ha
Method in brief: (§1)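 Visual scores on a 0–100 scale (100 = complete control) were assigned against untreated controls 7–21 days after treatment in a controlled environment. Compounds, formulated with solvent plus surfactant, were applied to pre-emergence silt-loam sowings or to 1- to 4-leaf plants (2–18 cm) in potting medium.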

[2] = system: wild oat (Avena fatua); details: scale 0 to 100, read-out: Plant response rating, Oat, Wild; for pest or weed control at 16 g/ha: 16 g ai/ha; for pest or weed control at 31 g/ha: 31 g ai/ha; for pest or weed control at 62 g/ha: 62 g ai/ha; for pest or weed control at 125 g/ha: 125 g ai/ha
Method in brief: as §1

[3] = system: kochia (Kochia scoparia); details: Bassia scoparia, scale 0 to 100, read-out: Plant response rating, Kochia; for pest or weed control at 16 g/ha: 16 g ai/ha; for pest or weed control at 31 g/ha: 31 g ai/ha; for pest or weed control at 62 g/ha: 62 g ai/ha; for pest or weed control at 125 g/ha: 125 g ai/ha
Method in brief: as §1

[4] = system: windgrass (Apera spica-venti); details: scale 0 to 100, read-out: Plant response rating, Windgrass; for pest or weed control at 16 g/ha: 16 g ai/ha; for pest or weed control at 62 g/ha: 62 g ai/ha; for pest or weed control at 125 g/ha: 125 g ai/ha
Method in brief: as §1

[5] = system: winter barley (Hordeum vulgare); details: scale 0 to 100, read-out: Plant response rating, Barley, Winter; for plant injury at 16 g/ha: 16 g ai/ha; for plant injury at 31 g/ha: 31 g ai/ha; for plant injury at 62 g/ha: 62 g ai/ha; for plant injury at 125 g/ha: 125 g ai/ha
Method in brief: as §1

[6] = system: blackgrass (Alopecurus myosuroides); details: scale 0 to 100, read-out: Plant response rating, Blackgrass; for pest or weed control at 16 g/ha: 16 g ai/ha; for pest or weed control at 31 g/ha: 31 g ai/ha; for pest or weed control at 62 g/ha: 62 g ai/ha; for pest or weed control at 125 g/ha: 125 g ai/ha
Method in brief: as §1

[7] = system: wild radish (Raphanus raphanistrum); details: scale 0 to 100, read-out: Plant response rating, Radish, Wild; for pest or weed control at 16 g/ha: 16 g ai/ha; for pest or weed control at 31 g/ha: 31 g ai/ha; for pest or weed control at 62 g/ha: 62 g ai/ha; for pest or weed control at 125 g/ha: 125 g ai/ha
Method in brief: as §1

[8] = system: winter wheat (Triticum aestivum); details: scale 0 to 100, read-out: Plant response rating, Wheat, Winter; for plant injury at 16 g/ha: 16 g ai/ha; for plant injury at 62 g/ha: 62 g ai/ha; for plant injury at 125 g/ha: 125 g ai/ha
Method in brief: as §1

[9] = system: bluegrass (annual bluegrass, Poa annua); details: scale 0 to 100, read-out: Plant response rating, Bluegrass; for pest or weed control at 16 g/ha: 16 g ai/ha; for pest or weed control at 31 g/ha: 31 g ai/ha; for pest or weed control at 62 g/ha: 62 g ai/ha; for pest or weed control at 125 g/ha: 125 g ai/ha
Method in brief: as §1

[10] = system: lambsquarters (Chenopodium album); details: scale 0 to 100, read-out: Plant response rating, Lambsquarters; for pest or weed control at 16 g/ha: 16 g ai/ha; for pest or weed control at 31 g/ha: 31 g ai/ha; for pest or weed control at 62 g/ha: 62 g ai/ha; for pest or weed control at 125 g/ha: 125 g ai/ha
Method in brief: as §1

[11] = system: canarygrass (Phalaris minor); details: scale 0 to 100, read-out: Plant response rating, Canarygrass; for pest or weed control at 16 g/ha: 16 g ai/ha; for pest or weed control at 31 g/ha: 31 g ai/ha; for pest or weed control at 62 g/ha: 62 g ai/ha; for pest or weed control at 125 g/ha: 125 g ai/ha
Method in brief: as §1

[12] = post-emergence, 31 g ai/ha, Postemergence

Fc1cccc(Oc2ncc(Cl)cn2)c1-c1cc(C(F)F)on1 [Compound 55, 5-chloro-2-[2-[5-(difluoromethyl)-3-isoxazolyl]-3-fluorophenoxy]pyrimidine]
pest or weed control at 16 g/ha ([1]; post-emergence, Postemergence): 85%
pest or weed control at 31 g/ha ([1]; post-emergence, Postemergence): 90%
pest or weed control at 62 g/ha ([1]; post-emergence, Postemergence): 95%
pest or weed control at 125 g/ha ([1]; post-emergence, Postemergence): 95%
pest or weed control at 16 g/ha ([1]; pre-emergence, Preemergence): 75%
pest or weed control at 31 g/ha ([1]; pre-emergence, Preemergence): 100%
pest or weed control at 62 g/ha ([1]; pre-emergence, Preemergence): 100%
pest or weed control at 125 g/ha ([1]; pre-emergence, Preemergence): 100%
pest or weed control at 16 g/ha ([2]; post-emergence, Postemergence): 10%
pest or weed control at 31 g/ha ([2]; post-emergence, Postemergence): 15%
pest or weed control at 62 g/ha ([2]; post-emergence, Postemergence): 40%
pest or weed control at 125 g/ha ([2]; post-emergence, Postemergence): 50%
pest or weed control at 16 g/ha ([2]; pre-emergence, Preemergence): 0%
pest or weed control at 31 g/ha ([2]; pre-emergence, Preemergence): 15%
pest or weed control at 62 g/ha ([2]; pre-emergence, Preemergence): 35%
pest or weed control at 125 g/ha ([2]; pre-emergence, Preemergence): 45%
pest or weed control at 16 g/ha ([3]; post-emergence, Postemergence): 65%
pest or weed control at 31 g/ha ([3]; post-emergence, Postemergence): 70%
pest or weed control at 62 g/ha ([3]; post-emergence, Postemergence): 85%
pest or weed control at 125 g/ha ([3]; post-emergence, Postemergence): 85%
pest or weed control at 16 g/ha ([3]; pre-emergence, Preemergence): 55%
pest or weed control at 31 g/ha ([3]; pre-emergence, Preemergence): 100%
pest or weed control at 62 g/ha ([3]; pre-emergence, Preemergence): 100%
pest or weed control at 125 g/ha ([3]; pre-emergence, Preemergence): 100%
pest or weed control at 16 g/ha ([4]; post-emergence, Postemergence): 5%
pest or weed control at 31 g/ha [4, 12]: 10%
pest or weed control at 62 g/ha ([4]; post-emergence, Postemergence): 25%
pest or weed control at 125 g/ha ([4]; post-emergence, Postemergence): 40%
pest or weed control at 16 g/ha ([4]; pre-emergence, Preemergence): 5%
pest or weed control at 62 g/ha ([4]; pre-emergence, Preemergence): 100%
pest or weed control at 125 g/ha ([4]; pre-emergence, Preemergence): 100%
plant injury at 16 g/ha ([5]; post-emergence, Postemergence): 0%
plant injury at 31 g/ha ([5]; post-emergence, Postemergence): 0%
plant injury at 62 g/ha ([5]; post-emergence, Postemergence): 5%
plant injury at 125 g/ha ([5]; post-emergence, Postemergence): 10%
plant injury at 16 g/ha ([5]; pre-emergence, Preemergence): 5%
plant injury at 31 g/ha ([5]; pre-emergence, Preemergence): 10%
plant injury at 62 g/ha ([5]; pre-emergence, Preemergence): 10%
plant injury at 125 g/ha ([5]; pre-emergence, Preemergence): 35%
pest or weed control at 16 g/ha ([6]; post-emergence, Postemergence): 5%
pest or weed control at 31 g/ha ([6]; post-emergence, Postemergence): 10%
pest or weed control at 62 g/ha ([6]; post-emergence, Postemergence): 20%
pest or weed control at 125 g/ha ([6]; post-emergence, Postemergence): 40%
pest or weed control at 16 g/ha ([6]; pre-emergence, Preemergence): 0%
pest or weed control at 31 g/ha ([6]; pre-emergence, Preemergence): 15%
pest or weed control at 62 g/ha ([6]; pre-emergence, Preemergence): 60%
pest or weed control at 125 g/ha ([6]; pre-emergence, Preemergence): 100%
pest or weed control at 16 g/ha ([7]; post-emergence, Postemergence): 75%
pest or weed control at 31 g/ha ([7]; post-emergence, Postemergence): 70%
pest or weed control at 62 g/ha ([7]; post-emergence, Postemergence): 80%
pest or weed control at 125 g/ha ([7]; post-emergence, Postemergence): 80%
pest or weed control at 16 g/ha ([7]; pre-emergence, Preemergence): 70%
pest or weed control at 31 g/ha ([7]; pre-emergence, Preemergence): 100%
pest or weed control at 62 g/ha ([7]; pre-emergence, Preemergence): 100%
pest or weed control at 125 g/ha ([7]; pre-emergence, Preemergence): 100%
plant injury at 16 g/ha ([8]; post-emergence, Postemergence): 0%
plant injury at 31 g/ha [8, 12]: 15%
plant injury at 62 g/ha ([8]; post-emergence, Postemergence): 30%
plant injury at 125 g/ha ([8]; post-emergence, Postemergence): 40%
plant injury at 16 g/ha ([8]; pre-emergence, Preemergence): 5%
plant injury at 62 g/ha ([8]; pre-emergence, Preemergence): 10%
plant injury at 125 g/ha ([8]; pre-emergence, Preemergence): 20%
pest or weed control at 16 g/ha ([9]; post-emergence, Postemergence): 0%
pest or weed control at 31 g/ha ([9]; post-emergence, Postemergence): 0%
pest or weed control at 62 g/ha ([9]; post-emergence, Postemergence): 15%
pest or weed control at 125 g/ha ([9]; post-emergence, Postemergence): 25%
pest or weed control at 16 g/ha ([9]; pre-emergence, Preemergence): 0%
pest or weed control at 31 g/ha ([9]; pre-emergence, Preemergence): 10%
pest or weed control at 62 g/ha ([9]; pre-emergence, Preemergence): 10%
pest or weed control at 125 g/ha ([9]; pre-emergence, Preemergence): 100%
pest or weed control at 16 g/ha ([10]; post-emergence, Postemergence): 75%
pest or weed control at 31 g/ha ([10]; post-emergence, Postemergence): 80%
pest or weed control at 62 g/ha ([10]; post-emergence, Postemergence): 85%
pest or weed control at 125 g/ha ([10]; post-emergence, Postemergence): 90%
pest or weed control at 16 g/ha ([10]; pre-emergence, Preemergence): 95%
pest or weed control at 31 g/ha ([10]; pre-emergence, Preemergence): 100%
pest or weed control at 62 g/ha ([10]; pre-emergence, Preemergence): 100%
pest or weed control at 125 g/ha ([10]; pre-emergence, Preemergence): 100%
pest or weed control at 16 g/ha ([11]; post-emergence, Postemergence): 10%
pest or weed control at 31 g/ha ([11]; post-emergence, Postemergence): 20%
pest or weed control at 62 g/ha ([11]; post-emergence, Postemergence): 30%
pest or weed control at 125 g/ha ([11]; post-emergence, Postemergence): 30%
pest or weed control at 16 g/ha ([11]; pre-emergence, Preemergence): 10%
pest or weed control at 31 g/ha ([11]; pre-emergence, Preemergence): 20%
pest or weed control at 62 g/ha ([11]; pre-emergence, Preemergence): 100%
pest or weed control at 125 g/ha ([11]; pre-emergence, Preemergence): 100%
